Reference: publication PMC5286520 (Scientific Reports, 2017)

Assays:
[1] = assay type: in vitro ADME, human; conditions: for half-life: human serum, 37 °C, 100 μM peptide, read-out: half-life t½ (converted); for degradation in human serum: within 24 h
Experimental: Serum stability was tested as described previously. Briefly, serum was obtained prepared from human blood (self-donor), allowed to coagulate for 2 h at 23 °C and centrifuged at 12,000 × g for 10 min. Peptides (100 μM) were incubated in serum for 2, 4, 6, 8, 10 and 24 h at 37 °C. To evaluate peptide stability, aliquots ([…]) were analysed via RP-HPLC (UltiMate 3000, Thermo Scientific Dionex, Vienna, Austria) on a C18 column (Phenomenex Kinetex, Aschaffenburg, Germany) with a 3% gradient using 0.1% (v/v) TFA and 90/10/0.1% (v/v/v) acetonitrile/H2O/TFA as eluents. Half-life (t1/2) of peptides was calculated using non-linear regression analysis using Graph Pad Prism.
Supplementary Fig. 5. Human serum stability of the inotocin D-analogue. [D-Arg 8 ]-inotocin […]
serum and their stability monitored via HPLC over a time course of 2, 4, 6, 8, 10 and 24 h. Melittin, a haemolytic peptide from the bee venom was used as a positive control f or peptide degradation.
Area under the curves of samples was determined and correlated to the negative control analyte, which was dissolved in 0.1% TFA; thus they were not subject to degradation and were assumed therefore as 100%. Peptide stability was expressed in percentage of peptide remaining.
(1 picture or pasted object on this page, not shown here)

V1aR = molecular target: V1aR; parameters: method as in earlier work; conditions: previous studies, ref [32][43], cited from earlier work
[2] = molecular target: inotocin R (T. castaneum); assay: Radioligand displacement of [3H] inotocin, inotocin receptor from T. castaneum; parameters: species or system Tribolium castaneum; conditions: saturation binding experiments
Experimental: (§1) Chinese Hamster Ovary cells (CHO) were cultured in Ham’s F12 media supplemented with 10% fetal bovine serum (FBS), 1% PenStrep (all from Sigma-Aldrich, Munich, Germany) and grown in a humidified atmosphere of 37 °C, 5% CO2 and passaged on average twice per week. CHO cells were used for expression of inotocin receptor (L. niger, T. castaneum). Cell transfections were carried out with 10 μg of plasmid using Lipofectamine LTX (Life Technologies, Invitrogen, Carlsbad, USA) for invertebrate receptors. For the expression of human OTR, V1aR, V1bR and V2R, HEK293 cells were transfected using jetPRIME (Polyplus Transfections, Illkirch-Graffenstaden, France)[35]. Cells were maintained in DMEM (GE Healthcare Hy Clone™, Logan, USA) supplemented with 10% FBS and 1% PenStrep.
(§2) Unbound ligands were washed off (Skatron Cell Harvester). […] Bindings of [^3H] AVP and [^3H] […] Bindings of [^3H] inotocin to membranes (10 μg) expressing INTR from L. niger, or [^3H] inotocin to membranes (10 μg) expressing INTR from T. castaneum, respectively, were assayed for displacement with an excess of inotocin (10^−11 to 10^−5 M) (n ≥ 3, except where otherwise stated). […] Specific binding was calculated by subtracting the non-specific binding from the total binding. […] Inhibition constants (Ki) were calculated from IC50 using the method by Cheng and Prusoff[65].

inotocin R (L. niger) = assay: Radioligand displacement of [3H] inotocin, inotocin receptor from L. niger; parameters: species or system Lasius niger; conditions: saturation binding experiments
Experimental: as §1, §2

Molecule | half-life [1] [min] | degradation in human serum [1] | also measured
CC[C@H](C)[C@H](NC(=O)CN)C(=O)NCC(=O)N[C@@H](C)C(=O)N[C@H](C(=O)N[C@@H](CC(C)C)C(=O)N[C@@H](CCCCN)C(=O)N[C@H](C(=O)N[C@@H](CC(C)C)C(=O)N[C@H](C(=O)N[C@H](C(=O)NCC(=O)N[C@@H](CC(C)C)C(=O)N1CCC[C@H]1C(=O)N[C@@H](C)C(=O)N[C@@H](CC(C)C)C(=O)N[C@H](C(=O)N[C@@H](CO)C(=O)N[C@@H](Cc1c[nH]c2ccccc12)C(=O)N[C@H](C(=O)N[C@@H](CCCCN)C(=O)N[C@@H](CCCNC(=N)N)C(=O)N[C@@H](CCCCN)C(=O)N[C@@H](CCCNC(=N)N)C(=O)N[C@@H](CCC(N)=O)C(=O)N[C@@H](CCC(N)=O)C(N)=O)[C@@H](C)CC)[C@@H](C)CC)[C@@H](C)O)[C@@H](C)O)C(C)C)C(C)C [melittin] | 42 | fully degraded | 
NC(=O)CC[C@@H]1NC(=O)[C@H](Cc2ccccc2)NC(=O)[C@H](Cc2ccc(O)cc2)NC(=O)[C@@H](N)CSSC[C@@H](C(=O)N2CCC[C@H]2C(=O)N[C@@H](CCCN=C(N)N)C(=O)NCC(N)=O)NC(=O)[C@H](CC(N)=O)NC1=O [vasopressin, arginine-vasopressin] | 60 | fully degraded | 
[D-Arg8]-vasopressin |  |  | Ki (V1aR; read-out: binding affinity): 781 nM; difference in affinity of peptide pair vasopressin/[D-Arg8]-vasopressin (V1aR): ~ 200 fold
[^3H] inotocin: tritiated inotocin radioligand, C[4,5-3H]LITNCPGR-NH2 as printed (tritium label; N-terminal Cys; C-terminal amide) |  |  | Kd [2]: 2.7 nM; Kd (inotocin R (L. niger)): 0.9 nM
